From ChEMBL document CHEMBL4196062, “Trypanothione reductase inhibition and anti-leishmanial activity of all-hydrocarbon stapled α-helical peptides with improved proteolytic stability” (Eur J Med Chem, 2018)
Active and inactive are the calls of the source. The rule behind the calls is not given here. Positions of bridges follow the written chain, without caps; N, C: chain ends. Non-standard residues stand in square brackets, D forms with d. Residues, ends and D or L forms follow the SMILES beside them. *: point of attachment. X1 = O=C(O)c1ccc(NC(=S)*)cc1-c1c2ccc(=O)cc-2oc2cc(O)ccc12; R5 = C=CCCC[C@@](C)(N)C(=O)O; S5 = C=CCCC[C@](C)(N)C(=O)O; Nle = CCCC[C@H](N)C(=O)O; AEEA = NCCOCCOCC(=O)O

Assays:
Trypanothione reductase [1] = target: T1, Trypanothione reductase (Leishmania infantum, UniProt A4HSF7); experiment: Inhibition of recombinant Leishmania infantum trypanothione reductase using T[S]2 as substrate preincubated for 5 mins followed by substrate and NADPH addition measured for 1 hr
Trypanothione reductase [2] = target: T1, Trypanothione reductase; experiment: Inhibition of dimerization of HIS/FLAG tagged Leishmania infantum trypanothione reductase incubated for 16 hrs by ELISA
Proteinase K [3] = target: T2, Proteinase K (Engyodontium album, UniProt P06873); experiment: Drug metabolism assessed as Tritirachium album proteinase K-mediated compound degradation by measuring half life at 100 uM measured up to 360 mins by HPLC method; format: ADME; settings: parengyodontium album
[4] = target: T3, Glutathione reductase, mitochondrial (Homo sapiens) (UniProt P00390); experiment: Activation of recombinant human glutathione reductase using GSSG as substrate preincubated for 5 mins followed by substrate and NADPH addition
T3 sequence (whole entry): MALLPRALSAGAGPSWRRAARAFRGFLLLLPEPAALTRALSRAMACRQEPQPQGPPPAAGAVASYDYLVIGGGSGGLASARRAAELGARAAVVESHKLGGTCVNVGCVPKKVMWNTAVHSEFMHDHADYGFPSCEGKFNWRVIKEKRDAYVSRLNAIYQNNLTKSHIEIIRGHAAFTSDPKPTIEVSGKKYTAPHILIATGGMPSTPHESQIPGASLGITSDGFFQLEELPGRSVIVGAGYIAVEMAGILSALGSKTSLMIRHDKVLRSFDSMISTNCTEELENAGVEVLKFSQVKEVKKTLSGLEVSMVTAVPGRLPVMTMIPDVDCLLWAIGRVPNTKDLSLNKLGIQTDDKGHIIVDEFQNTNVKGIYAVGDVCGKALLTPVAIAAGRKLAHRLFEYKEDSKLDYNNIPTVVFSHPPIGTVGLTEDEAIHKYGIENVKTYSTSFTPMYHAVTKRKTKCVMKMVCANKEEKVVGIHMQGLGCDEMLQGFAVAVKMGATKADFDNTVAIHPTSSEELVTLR

Proteinase K [5] = target: T2, Proteinase K; experiment: Drug metabolism assessed as Tritirachium album proteinase K-mediated compound degradation by measuring half life at 100 uM measured up to 480 mins by HPLC method; format: ADME; settings: parengyodontium album
Leishmania infantum [6] = experiment: Antileishmanial activity against Leishmania infantum MCAN/ES/89/IPZ229/1/89 promastigotes at 25 uM after 24 hrs by propidium iodide staining based fluorescence microscopic analysis; format: functional, organism-based
Leishmania infantum [7] = experiment: Antileishmanial activity against Leishmania infantum MCAN/ES/89/IPZ229/1/89 axenic amastigotes infected in human THP1 cells at 25 uM after 24 hrs by propidium iodide staining based fluorescence microscopic analysis; format: functional, organism-based
[8] = target: Trypanothione reductase (Leishmania infantum) (UniProt A4HSF7); experiment: Inhibition of dimerization of HIS/FLAG tagged Leishmania infantum trypanothione reductase assessed as dimer levels at 9.375 uM incubated for 16 hrs by ELISA; parameters: scale not given: the % may be the effect or the level left
[9] = target: Trypanothione reductase (Leishmania infantum) (UniProt A4HSF7); experiment: Inhibition of dimerization of HIS/FLAG tagged Leishmania infantum trypanothione reductase assessed as dimer levels at 18.75 uM incubated for 16 hrs by ELISA; parameters: scale not given: the % may be the effect or the level left
[10] = target: Trypanothione reductase (Leishmania infantum) (UniProt A4HSF7); experiment: Inhibition of dimerization of HIS/FLAG tagged Leishmania infantum trypanothione reductase assessed as dimer levels at 37.5 uM incubated for 16 hrs by ELISA; parameters: scale not given: the % may be the effect or the level left
[11] = target: Trypanothione reductase (Leishmania infantum) (UniProt A4HSF7); experiment: Inhibition of dimerization of HIS/FLAG tagged Leishmania infantum trypanothione reductase assessed as dimer levels at 75 uM incubated for 16 hrs by ELISA; parameters: scale not given: the % may be the effect or the level left
Leishmania infantum [12] = experiment: Antileishmanial activity against Leishmania infantum MCAN/ES/89/IPZ229/1/89 promastigotes after 24 hrs by propidium iodide staining based fluorescence microscopic analysis; format: functional, organism-based; settings: MCAN/ES/89/IPZ229/1/89, 24 h
Leishmania infantum [13] = experiment: Antileishmanial activity against Leishmania infantum MCAN/ES/89/IPZ229/1/89 axenic amastigotes infected in human THP1 cells after 24 hrs by propidium iodide staining based fluorescence microscopic analysis; format: functional, organism-based; settings: MCAN/ES/89/IPZ229/1/89, THP-1, 24 h
THP-1 = experiment: Cytotoxicity against human THP1 cells assessed as reduction in cell viability after 24 hrs by propidium iodide staining based fluorescence microscopic analysis; settings: THP-1, 24 h

T1 sequence (A4HSF7 whole entry): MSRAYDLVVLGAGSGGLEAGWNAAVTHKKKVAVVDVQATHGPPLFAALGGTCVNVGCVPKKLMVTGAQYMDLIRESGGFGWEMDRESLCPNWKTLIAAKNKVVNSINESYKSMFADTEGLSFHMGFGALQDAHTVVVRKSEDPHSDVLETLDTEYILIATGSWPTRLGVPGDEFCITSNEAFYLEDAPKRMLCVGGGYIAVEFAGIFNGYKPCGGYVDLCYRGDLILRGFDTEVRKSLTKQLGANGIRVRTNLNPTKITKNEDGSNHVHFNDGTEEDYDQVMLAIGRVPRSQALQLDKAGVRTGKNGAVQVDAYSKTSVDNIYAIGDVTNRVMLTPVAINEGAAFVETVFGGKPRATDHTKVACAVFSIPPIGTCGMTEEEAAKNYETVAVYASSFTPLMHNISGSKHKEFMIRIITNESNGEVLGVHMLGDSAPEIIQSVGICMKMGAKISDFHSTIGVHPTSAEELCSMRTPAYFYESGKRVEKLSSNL
Sequence of Trypanothione reductase (Leishmania infantum) (A4HSF7 as listed by the source): as the sequence (A4HSF7 whole entry) above
T2 sequence (P06873 whole entry): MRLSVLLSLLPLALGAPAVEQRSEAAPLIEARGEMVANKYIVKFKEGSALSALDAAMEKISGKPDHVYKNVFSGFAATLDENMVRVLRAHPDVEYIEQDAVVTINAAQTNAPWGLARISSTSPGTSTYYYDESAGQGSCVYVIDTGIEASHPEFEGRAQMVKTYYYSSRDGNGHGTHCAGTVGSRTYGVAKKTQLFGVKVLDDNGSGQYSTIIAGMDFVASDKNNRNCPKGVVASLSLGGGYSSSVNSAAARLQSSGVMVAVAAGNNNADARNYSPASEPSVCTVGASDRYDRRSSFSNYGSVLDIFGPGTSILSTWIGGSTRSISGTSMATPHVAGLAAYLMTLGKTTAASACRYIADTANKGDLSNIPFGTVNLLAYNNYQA

| SMILES | IC50 (Trypanothione reductase [1]) [µM] | Activity (Leishmania infantum [6]) | Activity (Leishmania infantum [7]) | Activity [8] [%] | Activity [9] [%] | Activity [10] [%] | Activity [11] [%] | further results |
| --- | --- | --- | --- | --- | --- | --- | --- | --- |
| CCCC[C@H](NC(=O)[C@H](CC(C)C)NC(=O)[C@H](CCCC)NC(=O)[C@H](CO)NC(=O)[C@@H](NC(=O)CNC(=O)[C@@H](NC(=O)[C@H](CO)NC(=O)[C@H](CCC(N)=O)NC(=O)[C@@H](NC(=O)[C@@H](NC(=O)[C@H](CC(C)C)NC(=O)[C@@H]1CCCN1C(C)=O)[C@@H](C)CC)[C@@H](C)CC)C(C)C)[C@@H](C)CC)C(N)=O | 1.2 | – | – | – | – | – | – | IC50 (Trypanothione reductase [2]; read-out: IC50): 13.5 µM; half-life at 100 µM (Proteinase K [3]): 0.375 to 0.383 h |
| CCCC[C@@H](NC(=O)[C@H](CC(C)C)NC(=O)[C@@H](CCCC)NC(=O)[C@H](CO)NC(=O)[C@@H](NC(=O)CNC(=O)C1(C)CCCC=CCCC[C@@](C)(NC(=O)[C@@H](NC(=O)[C@H](CC(C)C)NC(=O)[C@@H]2CCCN2C(C)=O)[C@@H](C)CC)C(=O)N[C@@H](CCC(N)=O)C(=O)N[C@@H](CO)C(=O)N[C@@H](C(C)C)C(=O)N1)[C@@H](C)CC)C(N)=O (some centres undefined) | 6.4 | inactive | inactive | 140 | 144 | 169 | 168 | Activity [4]: Active; half-life at 100 µM (Proteinase K [5]): 3.53 h |
| CCCC[C@@H](NC(=O)[C@H](CC(C)C)NC(=O)[C@@H](CCCC)NC(=O)[C@H](CO)NC(=O)[C@@H](NC(=O)CNC(=O)[C@@H](NC(=O)[C@H](CO)NC(=O)[C@H](CCC(N)=O)NC(=O)[C@@H](NC(=O)[C@@H](NC(=O)[C@H](CC(C)C)NC(=O)[C@@H]1CCCN1C(C)=O)[C@@H](C)CC)[C@@H](C)CC)C(C)C)[C@@H](C)CC)C(N)=O | – | – | – | 59 | 56 | 18 | 2 | – |
| C=CCCC[C@@](C)(NC(=O)[C@@H](NC(=O)[C@H](CO)NC(=O)[C@H](CCC(N)=O)NC(=O)[C@@](C)(CCCC=C)NC(=O)[C@@H](NC(=O)[C@H](CCCCN)NC(=O)[C@@H]1CCCN1C(C)=O)[C@@H](C)CC)C(C)C)C(=O)N[C@H](C(=O)N[C@@H](CO)C(=O)NCC(=O)N[C@@H](CCCCN)C(=O)NCC(N)=O)[C@@H](C)CC (Ac-PKI[R5]QSV[R5]ISGKG-NH2) | 12.5 | inactive | inactive | 125 | 145 | 175 | 184 | – |
| C=CCCC[C@](C)(NC(=O)[C@H](CO)NC(=O)[C@H](CCC(N)=O)NC(=O)[C@@H](NC(=O)[C@](C)(CCCC=C)NC(=O)[C@H](CCCCN)NC(=O)[C@@H]1CCCN1C(C)=O)[C@@H](C)CC)C(=O)NCC(=O)N[C@H](C(=O)N[C@@H](CO)C(=O)N[C@@H](CCCC)C(=O)N[C@@H](CCCCN)C(=O)N[C@@H](CCCC)C(N)=O)[C@@H](C)CC (Ac-PK[S5]IQS[S5]GIS[Nle]K[Nle]-NH2) | 28.2 | inactive | inactive | – | – | – | – | IC50 (Trypanothione reductase [2]): Not Active |
| CC[C@H](C)[C@H](NC(=O)[C@]1(C)CCCC=CCCC[C@](C)(NC(=O)[C@H](CCCCN)NC(=O)[C@@H]2CCCN2C(=O)[C@H](CCCNC(=N)N)NC(=O)[C@H](CCCNC(=N)N)NC(=O)[C@H](CCCNC(=N)N)NC(=O)[C@H](CCCNC(=N)N)NC(=O)[C@H](CCCNC(=N)N)NC(=O)[C@H](CCCNC(=N)N)NC(=O)[C@H](CCCNC(=N)N)NC(=O)[C@H](CCCNC(=N)N)NC(=O)[C@H](CCCNC(=N)N)NC(C)=O)C(=O)N[C@@H]([C@@H](C)CC)C(=O)N[C@@H](CCC(N)=O)C(=O)N[C@@H](CO)C(=O)NCC(=O)N1)C(=O)N[C@@H](CO)C(=O)NCC(=O)N[C@@H](CC(C)C)C(=O)NCC(N)=O (Ac-RRRRRRRRRPK[S5]IQSG[S5]ISGLG-NH2; staple 12-17) | – | – | – | – | – | – | – | EC50 (Leishmania infantum [12]): 1.95 µM; EC50 (Leishmania infantum [13]): 2.14 µM; EC50 (THP-1): 0.33 µM |
| CCCC[C@H](NC(=O)[C@H](CC(C)C)NC(=O)[C@H](CCCC)NC(=O)[C@H](CO)NC(=O)[C@@H](NC(=O)CNC(=O)[C@]1(C)CCCC=CCCC[C@@](C)(NC(=O)[C@H](CC(C)C)NC(=O)[C@@H]2CCCN2C(C)=O)C(=O)N[C@@H]([C@@H](C)CC)C(=O)N[C@@H](CCC(N)=O)C(=O)N[C@@H](CO)C(=O)N1)[C@@H](C)CC)C(N)=O (stereo in doubt; 2a) [listing 1 of 2 here] | 6.7 | – | – | – | – | – | – | half-life at 100 µM (Proteinase K [5]): 6.97 h |
| CCCC[C@H](NC(=O)[C@H](CC(C)C)NC(=O)[C@H](CCCC)NC(=O)[C@H](CO)NC(=O)[C@@H](NC(=O)CNC(=O)[C@]1(C)CCCC=CCCC[C@@](C)(NC(=O)[C@H](CC(C)C)NC(=O)[C@@H]2CCCN2C(C)=O)C(=O)N[C@@H]([C@@H](C)CC)C(=O)N[C@@H](CCC(N)=O)C(=O)N[C@@H](CO)C(=O)N1)[C@@H](C)CC)C(N)=O (stereo in doubt; 2a) [listing 2 of 2 here] | – | inactive | inactive | 114 | 130 | 153 | 181 | Activity [4]: Active |
| CCCC[C@H](NC(=O)[C@H](CC(C)C)NC(=O)[C@H](CCCC)NC(=O)[C@H](CO)NC(=O)[C@@H](NC(=O)CNC(=O)[C@]1(C)CCCC=CCCC[C@@](C)(NC(=O)[C@H](CC(C)C)NC(=O)[C@@H]2CCCN2C(C)=O)C(=O)N[C@@H]([C@@H](C)CC)C(=O)N[C@@H](CCC(N)=O)C(=O)N[C@@H](CO)C(=O)N1)[C@@H](C)CC)C(N)=O (stereo in doubt; 2b) | > 25 | – | – | – | – | – | – | IC50 (Trypanothione reductase [2]): Not Active |
| CC[C@H](C)[C@H](NC(=O)[C@]1(C)CCCC=CCCC[C@](C)(NC(=O)[C@H](CCCCN)NC(=O)[C@@H]2CCCN2C(=O)COCCOCCNC(=S)Nc2ccc(C(=O)O)c(-c3c4ccc(=O)cc-4oc4cc(O)ccc34)c2)C(=O)N[C@@H]([C@@H](C)CC)C(=O)N[C@@H](CCC(N)=O)C(=O)N[C@@H](CO)C(=O)NCC(=O)N1)C(=O)N[C@@H](CO)C(=O)NCC(=O)N[C@@H](CC(C)C)C(=O)NCC(N)=O ({X1-AEEA}-PK[S5]IQSG[S5]ISGLG-NH2; staple 3-8) | – | inactive | inactive | – | – | – | – | – |
| CCCCCCCCCCCCCCCCCCOCC(COP(=O)([O-])OCC[N+](C)(C)C)OC (centres undefined) [EDELFOSINE] | – | – | – | – | – | – | – | EC50 (Leishmania infantum [12]): 9 µM; EC50 (Leishmania infantum [13]): 0.6 µM; EC50 (THP-1): 1 µM |
| CCCCCCCCCCCCCCCCOP(=O)([O-])OCC[N+](C)(C)C [MILTEFOSINE] | – | – | – | – | – | – | – | EC50 (Leishmania infantum [12]): 47.6 µM; EC50 (Leishmania infantum [13]): 2 µM; EC50 (THP-1): 19 µM |
